Test results: patent US9670210B2, “Cyclopropylamines as LSD1 inhibitors” (Incyte Corporation, priority 2014, dated 2017)

Target: LSD-1 enzyme (Homo sapiens (Human), UniProt O60341)
Description: LSD1 Histone Demethylase Biochemical Assay
LANCE LSD1/KDM1A demethylase assay-10 μL of 1 nM LSD-1 enzyme (ENZO BML-SE544-0050) in the assay buffer (50 mM Tris, pH 7.5, 0.01% Tween-20, 25 mM NaCl, 5 mM DTT) were preincubated for 1 hour at 25° C. with 0.8 μL compound/DMSO dotted in black 384 well polystyrene plates. […] After stopping the reactions plates were incubated for 30 minutes and read on a PHERAstar FS plate reader (BMG Labtech).

## COCC1(CN[C@@H]2C[C@H]2c2ccccc2)CCN(C(=O)c2ccc(N)nn2)CC1 [Example 40, 6-{[4-(methoxymethyl)-4-({[(1R,2S)-2-phenylcyclopropyl]amino}methyl)piperidin-1-yl]carbonyl}pyridazin-3-amine]
  IC50: < 0.1 µM

## COCC1(CN[C@@H]2C[C@H]2c2ccccc2)CCN(C(=O)C2CCN(C)CC2)CC1 [Example 41, (1R,2S)—N-({4-(methoxymethyl)-1-[(1-methylpiperidin-4-yl)carbonyl]piperidin-4-yl}methyl)-2-phenylcyclopropanamine]
  IC50: < 0.1 µM

## COCC1(CN[C@@H]2C[C@H]2c2ccccc2)CCN(C(=O)c2ccn(C)n2)CC1 [Example 42, (1R,2S)—N-({4-(methoxymethyl)-1-[(1-methyl-1H-pyrazol-3-yl)carbonyl]piperidin-4-yl}methyl)-2-phenylcyclopropanamine]
  IC50: < 0.1 µM

## COCC1(CN[C@@H]2C[C@H]2c2ccccc2)CCN(C(=O)N2CCN(C)CC2)CC1 [Example 43, (1R,2S)—N-({4-(methoxymethyl)-1-[(4-methylpiperazin-1-yl)carbonyl]piperidin-4-yl}methyl)-2-phenylcyclopropanamine]
  IC50: < 0.1 µM

## CC1(CN[C@@H]2C[C@H]2c2ccccc2)CCN(CC2(C(=O)O)CC2)CC1 [Example 44, 1-{[4-methyl-4-({[(1R,2S)-2-phenylcyclopropyl]amino}methyl)piperidin-1-yl]methyl}cyclopropanecarboxylic acid]
  IC50: < 0.1 µM

## CC1(CN[C@@H]2C[C@H]2c2ccccc2)CCN(CC2(C(=O)O)CCC2)CC1 [Example 45, 1-{[4-methyl-4-({[(1R,2S)-2-phenylcyclopropyl]amino}methyl)piperidin-1-yl]methyl}cyclobutanecarboxylic acid]
  IC50: < 0.1 µM

## Cn1ccc(C(=O)N2CCC(C)(CN[C@@H]3C[C@H]3c3ccccc3)CC2)n1 [Example 46, (1R,2S)—N-({4-methyl-1-[(1-methyl-1H-pyrazol-3-yl)carbonyl]piperidin-4-yl}methyl)-2-phenylcyclopropanamine]
  IC50: < 0.1 µM

## Cn1cnc(C(=O)N2CCC(C)(CN[C@@H]3C[C@H]3c3ccccc3)CC2)c1 [Example 47, (1R,2S)—N-({4-methyl-1-[(1-methyl-1H-imidazol-4-yl)carbonyl]piperidin-4-yl}methyl)-2-phenylcyclopropanamine]
  IC50: < 0.1 µM

## CC1(CN[C@@H]2C[C@H]2c2ccccc2)CCN(C(=O)c2cnc(N)nc2)CC1 [Example 48, 5-{[4-methyl-4-({[(1R,2S)-2-phenylcyclopropyl]amino}methyl)piperidin-1-yl]carbonyl}pyrimidin-2-amine]
  IC50: < 0.1 µM

## CC1(CN[C@@H]2C[C@H]2c2ccccc2)CCN(C(=O)c2ccc(N)nn2)CC1 [Example 49, 6-{[4-methyl-4-({[(1R,2S)-2-phenylcyclopropyl]amino}methyl)piperidin-1-yl]carbonyl}pyridazin-3-amine]
  IC50: < 0.1 µM

## CC1(CN[C@@H]2C[C@H]2c2ccccc2)CCN(C(=O)c2c[nH]nc2N)CC1 [Example 50, 4-{[4-methyl-4-({[(1R,2S)-2-phenylcyclopropyl]amino}methyl)piperidin-1-yl]carbonyl}-1H-pyrazol-3-amine]
  IC50: < 0.1 µM

## CC1(CN[C@@H]2C[C@H]2c2ccccc2)CCN(C(=O)C2(N)CCCC2)CC1 [Example 51, 1-{[4-methyl-4-({[(1R,2S)-2-phenylcyclopropyl]amino}methyl)piperidin-1-yl]carbonyl}cyclopentanamine]
  IC50: < 0.1 µM

## CC1(CN[C@@H]2C[C@H]2c2ccccc2)CCN(Cc2cnc(N)nc2)CC1 [Example 52, 5-{[4-methyl-4-({[(1R,2S)-2-phenylcyclopropyl]amino}methyl)piperidin-1-yl]methyl}pyrimidin-2-amine]
  IC50: < 0.1 µM

## N#CCc1ccc(CC2(CN[C@@H]3C[C@H]3c3ccccc3)CCN(CC3(C(=O)O)CC3)CC2)cc1 [Example 53, 1-{[4-[4-(cyanomethyl)benzyl]-4-({[(1R,2S)-2-phenylcyclopropyl]amino}methyl)piperidin-1-yl]methyl}cyclopropanecarboxylic acid]
  IC50: < 0.1 µM

## N#CCc1ccc(CC2(CN[C@@H]3C[C@H]3c3ccccc3)CCN(CC3(C(=O)O)CCC3)CC2)cc1 [Example 54, 1-{[4-[4-(cyanomethyl)benzyl]-4-({[(1R,2S)-2-phenylcyclopropyl]amino}methyl)piperidin-1-yl]methyl}cyclobutanecarboxylic acid]
  IC50: < 0.1 µM

## N#Cc1ccc(CC2(CN[C@@H]3C[C@H]3c3ccccc3)CCN(CC3(C(=O)O)CC3)CC2)cc1 [Example 55, 1-{[4-(4-cyanobenzyl)-4-({[(1R,2S)-2-phenylcyclopropyl]amino}methyl)piperidin-1-yl]methyl}cyclopropanecarboxylic acid]
  IC50: < 0.1 µM

## N#Cc1cccc(CC2(CN[C@@H]3C[C@H]3c3ccccc3)CCN(CC3(C(=O)O)CC3)CC2)c1 [Example 56, 1-{[4-(3-cyanobenzyl)-4-({[(1R,2S)-2-phenylcyclopropyl]amino}methyl)piperidin-1-yl]methyl}cyclopropanecarboxylic acid]
  IC50: < 0.1 µM

## N#Cc1cccc(CC2(CN[C@@H]3C[C@H]3c3ccccc3)CCN(CC3(C(=O)O)CCC3)CC2)c1 [Example 57, 1-{[4-(3-cyanobenzyl)-4-({[(1R,2S)-2-phenylcyclopropyl]amino}methyl)piperidin-1-yl]methyl}cyclobutanecarboxylic acid]
  IC50: < 0.1 µM

## N#Cc1cccc(CC2(CN[C@@H]3C[C@H]3c3ccccc3)CCN(C[C@H]3CC[C@H](C(=O)O)CC3)CC2)c1 [Example 58, trans-4-{[4-(3-cyanobenzyl)-4-({[(1R,2S)-2-phenylcyclopropyl]amino}methyl)piperidin-1-yl]methyl}cyclohexanecarboxylic acid]
  IC50: < 0.1 µM

## COc1cccc(CN2CCC(CN[C@@H]3C[C@H]3c3ccccc3)(Cc3cccc(C(=O)O)c3)CC2)c1 [Example 59, 3-{[1-(3-methoxybenzyl)-4-({[(1R,2S)-2-phenylcyclopropyl]amino}methyl)piperidin-4-yl]methyl}benzoic acid]
  IC50: < 0.1 µM

## COCC1(CN[C@@H]2C[C@H]2c2ccccc2)CCN(C(=O)N2CC[C@@H](O)C2)CC1 [Example 60, (3R)-1-{[4-(methoxymethyl)-4-({[(1R,2S)-2-phenylcyclopropyl]amino}methyl)piperidin-1-yl]carbonyl}pyrrolidin-3-ol]
  IC50: < 0.1 µM

## COCC1(CN[C@@H]2C[C@H]2c2ccccc2)CCN(C(=O)N2CC[C@H](O)C2)CC1 [Example 61, (3S)-1-{[4-(methoxymethyl)-4-({[(1R,2S)-2-phenylcyclopropyl]amino}methyl)piperidin-1-yl]carbonyl}pyrrolidin-3-ol]
  IC50: < 0.1 µM

## COCC1(CN[C@@H]2C[C@H]2c2ccccc2)CCN(Cc2ccc(C(=O)O)cc2)CC1 [Example 62, 4-{[4-(methoxymethyl)-4-({[(1R,2S)-2-phenylcyclopropyl]amino}methyl)piperidin-1-yl]methyl}benzoic acid]
  IC50: < 0.1 µM

## COCC1(CN[C@@H]2C[C@H]2c2ccc(F)cc2)CCN(CC2(C(=O)O)CCC2)CC1 [Example 63, 1-{[4-({[(1R,2S)-2-(4-fluorophenyl)cyclopropyl]amino}methyl)-4-(methoxymethyl)piperidin-1-yl]methyl}cyclobutanecarboxylic acid]
  IC50: < 0.1 µM

## COCC1(CN[C@@H]2C[C@H]2c2ccccc2F)CCN(CC2(C(=O)O)CCC2)CC1 [Example 64, 1-{[4-({[(1R,2S)-2-(2-fluorophenyl)cyclopropyl]amino}methyl)-4-(methoxymethyl)piperidin-1-yl]methyl}cyclobutanecarboxylic acid]
  IC50: < 0.1 µM

## COCC1(CN[C@@H]2C[C@H]2c2ccc(F)c(F)c2)CCN(CC2(C(=O)O)CCC2)CC1 [Example 65, 1-{[4-({[(1R,2S)-2-(3,4-difluorophenyl)cyclopropyl]amino}methyl)-4-(methoxymethyl)piperidin-1-yl]methyl}cyclobutanecarboxylic acid]
  IC50: < 0.1 µM

## COCC1(CNC2CC2c2ccccc2OC)CCN(CC2(C(=O)O)CCC2)CC1 (stereo not drawn) [Example 66, 1-{[4-(methoxymethyl)-4-({[2-(2-methoxyphenyl)cyclopropyl]amino}methyl)piperidin-1-yl]methyl}cyclobutanecarboxylic acid]
  IC50: < 0.1 µM

## COCC1(CNC2CC2c2ccc(OC)cc2)CCN(CC2(C(=O)O)CCC2)CC1 (stereo not drawn) [Example 67, 1-{[4-(methoxymethyl)-4-({[2-(4-methoxyphenyl)cyclopropyl]amino}methyl)piperidin-1-yl]methyl}cyclobutanecarboxylic acid]
  IC50: < 0.1 µM

## COCC1(C(C)N[C@@H]2C[C@H]2c2ccccc2)CCN(CC2(C(=O)O)CCC2)CC1 (stereo partly drawn) [Example 68, 1-{[4-(methoxymethyl)-4-(1-{[(1R,2S)-2-phenylcyclopropyl]amino}ethyl)piperidin-1-yl]methyl}cyclobutanecarboxylic acid]
  IC50: < 0.1 µM

## COc1ccc(CC2(CN[C@@H]3C[C@H]3c3ccccc3)CCN(CC3(C(=O)O)CC3)CC2)cn1 [Example 69, 1-{[4-[(6-methoxypyridin-3-yl)methyl]-4-({[(1R,2S)-2-phenylcyclopropyl]amino}methyl)piperidin-1-yl]methyl}cyclopropanecarboxylic acid]
  IC50: < 0.1 µM

## CCOCC1(CN[C@@H]2C[C@H]2c2ccccc2)CCN(CC2(C(=O)O)CC2)CC1 [Example 70, 1-{[4-(ethoxymethyl)-4-({[(1R,2S)-2-phenylcyclopropyl]amino}methyl)piperidin-1-yl]methyl}cyclopropanecarboxylic acid]
  IC50: < 0.1 µM

## CCOCC1(CN[C@@H]2C[C@H]2c2ccccc2)CCN(CC2(C(=O)O)CCC2)CC1 [Example 71, 1-{[4-(ethoxymethyl)-4-({[(1R,2S)-2-phenylcyclopropyl]amino}methyl)piperidin-1-yl]methyl}cyclobutanecarboxylic acid]
  IC50: < 0.1 µM

## O=C(O)C1(CN2CCC(CN[C@@H]3C[C@H]3c3ccccc3)(COCc3ccccc3)CC2)CC1 [Example 72, 1-{[4-[(benzyloxy)methyl]-4-({[(1R,2S)-2-phenylcyclopropyl]amino}methyl)piperidin-1-yl]methyl}cyclopropanecarboxylic acid]
  IC50: < 0.1 µM
